29 compounds from US20250019373A1, “ARYL OR HETEROARYL DERIVATIVE, AND PHARMACEUTICAL COMPOSITION COMPRISING SAME AS ACTIVE INGREDIENT FOR PREVENTION OR TREATMENT OF KINASE-RELATED DISEASES” (VORONOI INC., priority 2021, published 2025) can be followed below.

For the test, the system named is HT-29 cells. The test is described as follows: Cell necrosis inhibitory activity under necroptosis-inducing conditions (TNF-α, Z-VAD-FMK, LCL161) in HT-29 cells, Cell Titer-Glo. The test is classed as cell-based. Particulars: Homo sapiens, 100 ng/mL TNF-α + 25 μM Z-VAD-FMK + Smac mimetic LCL161, 24 hours, cell viability. Here is the method:
To evaluate the cell necrosis inhibitory activity of the compound according to the present invention, an experiment was conducted as follows.
To evaluate the efficacy of inhibiting cell necrosis under TNF-α-mediated cell death-inducing conditions, a HT-29 cell line (Korean Cell Line Bank Accession No. #30038) was cultured in RPMI-1640 (HyClone #SH3027.01) medium containing 10% fetal bovine serum (FBS) and 1% penicillin/streptomycin to analyze cell viability. More specifically, for testing, the cell line was seeded in a 96-well flat bottom plate (Corning #3903) at a concentration of 10,000 cells/well and incubated at 37° C. under a 5% CO2 condition for 24 hours. Each well was treated with 100 ng/mL TNF-α, 25 μM pan-caspase inhibitor (Z-VAD-FMK, Selleckchem #S8102), and 10 µM Smac mimetic LCL161 (Selleckchem #S7009) and allowed to react for 10 minutes. The compounds of Examples were treated at 11 concentrations (the highest concentration being 0.1 μM or 1 μM) with a 3-fold concentration gradient, and as a control, dimethyl sulfoxide (DMSO) was treated at a concentration of 0.05% (v/v), which is the same as those when the compounds were treated. The treated cells were incubated for 24 hours. To confirm the degree of cell viability, 100 μL of Cell Titer-Glo (Promega #G7573) was added to the medium of the cultured cells and cultured for additional 10 minutes, and then luminescence was measured using a microplate reader. Based on the […] of control cells that were not treated with the compound, the degree of cell necrosis inhibitory activity was calculated according to the treatment concentration of each compound. Here, the concentration at which the cell necrosis inhibitory activity was 50% was determined as an EC50 (nM) value and calculated using Prism (ver. 8.4.3 #GraphPad) software.

Molecules are shown by their SMILES.

For `CC(=O)Nc1cn2nc(-c3cccc(NC(=O)N4OCC[C@H]4c4ccccc4)c3)ccc2n1` [Example 1, (S)-N-(3-(2-acetamidoimidazo[1,2-b]pyridazin-6-yl)phenyl)-3-phenylisoxazolidine-2-carboxamide], the EC50 stood at 900 pM.
For `O=C(Nc1cn2nc(-c3cccc(NC(=O)N4OCC[C@H]4c4ccccc4)c3)ccc2n1)C1CC1` [Example 2, (S)-N-(3-(2-(cyclopropanecarboxamido)imidazo[1,2-b]pyridazin-6-yl)phenyl)-3-phenylisoxazolidine-2-carboxamide] the value was 200 pM; for `COc1ncc(-c2ccc3nc(NC(=O)C4CC4)cn3n2)cc1NC(=O)N1OCC[C@H]1c1ccccc1` [Example 4, (S)-N-(5-(2-(cyclopropanecarboxamido)imidazo[1,2-b]pyridazin-6-yl)-2-methoxypyridin-3-yl)-3-phenylisoxazolidine-2-carboxamide], 200 pM; for `COc1ncc(-c2ccc3nc(NC(=O)CO)cn3n2)cc1NC(=O)N1OCC[C@H]1c1ccccc1` [Example 5, (S)-N-(5-(2-(2-hydroxyacetamido)imidazo[1,2-b]pyridazin-6-yl)-2-methoxypyridin-3-yl)-3-phenylisoxazolidine-2-carboxamide], 2900 pM.
For the compound `COCC(=O)Nc1cn2nc(-c3cnc(OC)c(NC(=O)N4OCC[C@H]4c4ccccc4)c3)ccc2n1` [Example 6, (S)-N-(2-methoxy-5-(2-(2-methoxyacetamido)imidazo[1,2-b]pyridazin-6-yl)pyridin-3-yl)-3-phenylisoxazolidine-2-carboxamide], the EC50 is 900 pM.
In the case of `COc1ncc(-c2ccc3nc(N)cn3n2)cc1NC(=O)N1OCC[C@H]1c1ccccc1` [Example 7, (S)-N-(5-(2-aminoimidazo[1,2-b]pyridazin-6-y1)-2-methoxypyridin-3-yl)-3-phenylisoxazolidine-2-carboxamide], the EC50 worked out at 40000 pM.
Take `COc1ccc(-c2ccc3nc(NC(C)=O)cn3n2)cc1NC(=O)N1OCC[C@H]1c1ccccc1` [Example 8, (S)-N-(5-(2-acetamidoimidazo[1,2-b]pyridazin-6-yl)-2-methoxyphenyl)-3-phenylisoxazolidine-2-carboxamide]: the EC50 amounted to 400 pM.
Under `Cc1ncc(-c2ccc3nc(NC(=O)C4CC4)cn3n2)cc1NC(=O)N1OCC[C@H]1c1ccccc1` [Example 10, (S)-N-(5-(2-(cyclopropanecarboxamido)imidazo[1,2-b]pyridazin-6-yl)-2-methylpyridin-3-yl)-3-phenylisoxazolidine-2-carboxamide] stands 300 pM; under `CC(=O)Nc1cn2nc(-c3cnc(C)c(NC(=O)N4OCC[C@H]4c4ccccc4)c3)ccc2n1` [Example 11, (S)-N-(5-(2-acetamidoimidazo[1,2-b]pyridazin-6-yl)-2-methylpyridin-3-yl)-3-phenylisoxazolidine-2-carboxamide], 900 pM; under `COc1ncc(-c2ccc3nnn(C(C)C)c3c2)cc1NC(=O)N1OCC[C@H]1c1ccccc1` [Example 12, (S)-N-(5-(1-isopropyl-1H-benzo[d][1,2,3]triazol-6-yl)-2-methoxypyridin-3-yl)-3-phenylisoxazolidine-2-carboxamide], 13700 pM.
In the case of `COc1ncc(-c2ccc3nc(NC(C)=O)oc3c2)cc1NC(=O)N1OCC[C@H]1c1ccccc1` [Example 13, (S)-N-(5-(2-acetamidobenzo[d]oxazol-6-yl)-2-methoxypyridin-3-yl)-3-phenylisoxazolidine-2-carboxamide], the EC50 stood at 2600 pM.
As to `COc1ncc(-c2ccc3nc(NC(C)=O)sc3n2)cc1NC(=O)N1OCC[C@H]1c1ccccc1` [Example 14, (S)-N-(5-(2-acetamidothiazolo[5,4-b]pyridin-5-yl)-2-methoxypyridin-3-yl)-3-phenylisoxazolidine-2-carboxamide], the EC50 was determined as 700 pM.
On to `COc1ccc(-c2ccc3nnn(C(C)C)c3c2)cc1NC(=O)N1OCC[C@H]1c1ccccc1` [Example 15, (S)-N-(5-(1-isopropyl-1H-benzo[d][1,2,3]triazol-6-yl)-2-methoxyphenyl)-3-phenylisoxazolidine-2-carboxamide], for which the EC50 stood at 23900 pM.
In the case of `COc1ccc(-c2ccc3nc(NC(C)=O)oc3c2)cc1NC(=O)N1OCC[C@H]1c1ccccc1` [Example 16, (S)-N-(5-(2-acetamidobenzo[d]oxazol-6-yl)-2-methoxyphenyl)-3-phenylisoxazolidine-2-carboxamide], the EC50 was 4900 pM.
For `CNC(=O)c1n[nH]c2cc(-c3cccc(NC(=O)N4OCC[C@H]4c4ccccc4)c3)ccc12` [Example 17, (S)-N-(3-(3-(methylcarbamoyl)-1H-indazol-6-yl)phenyl)-3-phenylisoxazolidine-2-carboxamide], the EC50 turned out to be 100 pM.
As for `CNC(=O)c1n[nH]c2cc(-c3cc(NC(=O)N4OCC[C@H]4c4ccccc4)cnc3C)ccc12` [Example 18, (S)-N-(6-methyl-5-(3-(methylcarbamoyl)-1H-indazol-6-yl)pyridin-3-y1)-3-phenylisoxazolidine-2-carboxamide], the EC50 was found to be 300 pM.
As to `CNC(=O)c1n[nH]c2cc(-c3cncc(NC(=O)N4OCC[C@H]4c4ccccc4)c3)ccc12` [Example 19, (S)-N-(5-(3-(methylcarbamoyl)-1H-indazol-6-yl)pyridin-3-yl)-3-phenylisoxazolidine-2-carboxamide], the EC50 came to 1000 pM.
On to `CN(C)C1CCC(NC(=O)c2n[nH]c3cc(-c4cccc(NC(=O)N5OCC[C@H]5c5ccccc5)c4)ccc23)CC1` (stereo partly drawn) [Example 20, (S)-N-(3-(3-((4-(dimethylamino)cyclohexyl)carbamoyl)-1H-indazol-6-yl)phenyl)-3-phenylisoxazolidine-2-carboxamide], for which the EC50 is 300 pM.
As for `CNC(=O)c1n[nH]c2cc(-c3cnc(C)c(NC(=O)N4OCC[C@H]4c4ccccc4)c3)ccc12` [Example 21, (S)-N-(2-methyl-5-(3-(methylcarbamoyl)-1H-indazol-6-yl)pyridin-3-yl)-3-phenylisoxazolidine-2-carboxamide], the EC50 was 400 pM.
As for `CNC(=O)c1n[nH]c2cc(-c3cnc(OC)c(NC(=O)N4OCC[C@H]4c4ccccc4)c3)ccc12` [Example 22, (S)-N-(2-methoxy-5-(3-(methylcarbamoyl)-1H-indazol-6-yl)pyridin-3-yl)-3-phenylisoxazolidine-2-carboxamide], the EC50 is 300 pM.
On to `CNC(=O)c1n[nH]c2cc(-c3cc(NC(=O)N4OCC[C@H]4c4ccccc4)cnc3OC)ccc12` [Example 23, (S)-N-(6-methoxy-5-(3-(methylcarbamoyl)-1H-indazol-6-yl)pyridin-3-y1)-3-phenylisoxazolidine-2-carboxamide], for which the EC50 is 8100 pM.
Under `CNC(=O)c1n[nH]c2cc(-c3ccc(OC)c(NC(=O)N4OCC[C@H]4c4ccccc4)c3)ccc12` [Example 24, (S)-N-(2-methoxy-5-(3-(methylcarbamoyl)-1H-indazol-6-yl)phenyl)-3-phenylisoxazolidine-2-carboxamide] stands 400 pM; under `O=C(Nc1nc2ccc(-c3cccc(NC(=O)N4OCC[C@H]4c4ccccc4)c3)cc2s1)C1CC1` [Example 25, (S)-N-(3-(2-(cyclopropanecarboxamido)benzo[d]thiazol-6-yl)phenyl)-3-phenylisoxazolidine-2-carboxamide], 200 pM; under `COc1ncc(-c2ccc3nc(NC(C)=O)sc3c2)cc1NC(=O)N1OCC[C@H]1c1ccccc1` [Example 26, (S)-N-(5-(2-acetamidobenzo[d]thiazol-6-yl)-2-methoxypyridin-3-yl)-3-phenylisoxazolidine-2-carboxamide], 700 pM.
On to `COc1ccc(-c2ccc3nc(NC(C)=O)sc3c2)cc1NC(=O)N1OCC[C@H]1c1ccccc1` [Example 27, (S)-N-(5-(2-acetamidobenzo[d]thiazol-6-yl)-2-methoxyphenyl)-3-phenylisoxazolidine-2-carboxamide], for which the EC50 is 1000 pM.
Turning to `CC(=O)Nc1nc2ccc(-c3cnc(C)c(NC(=O)N4OCC[C@H]4c4ccccc4)c3)cc2s1` [Example 28, (S)-N-(5-(2-acetamidobenzo[d]thiazol-6-yl)-2-methylpyridin-3-yl)-3-phenylisoxazolidine-2-carboxamide], the EC50 was found to be 200 pM.
With `Cc1ncc(-c2ccc3nc(NC(=O)C4CC4)sc3c2)cc1NC(=O)N1OCC[C@H]1c1ccccc1` [Example 29, (S)-N-(5-(2-(cyclopropanecarboxamido)benzo[d]thiazol-6-yl)-2-methylpyridin-3-yl)-3-phenylisoxazolidine-2-carboxamide], the EC50 is 100 pM.
For `COc1ccc(-c2ccc3nc(N)nn3c2)cc1NC(=O)N1OCC[C@H]1c1ccccc1` [Example 31, (S)-N-(5-(2-amino-[1,2,4]triazolo[1,5-a]pyridin-6-yl)-2-methoxyphenyl)-3-phenylisoxazolidine-2-carboxamide] the value was 4600 pM.
As to `Cc1ccc(-c2ccc3nc(N)nn3c2)cc1NC(=O)N1OCC[C@H]1c1ccccc1` [Example 32, (S)-N-(5-(2-amino-[1,2,4]triazolo[1,5-a]pyridin-6-yl)-2-methylphenyl)-3-phenylisoxazolidine-2-carboxamide], the EC50 amounted to 600 pM.
